The text below walks through data of patent publication US20090298938A1, “USE OF SEMI SYNTHETIC ANALOGUES OF BOSWELLIC ACIDS FOR ANTICANCER ACTIVITY” (COUNCIL OF SCIENTIFIC & INDUSTRIAL RESEARCH, priority 2008, published 2009).

The subject of test [1] is HT-29 colon cancer cells. The test can be described thus: In vitro cytotoxicity, SRB assay, HT-29. The test is classed as cell-based, human. The protocol: (§1) The semi-synthetic analogues of formula 1 have been subjected to in vitro cytotoxicity screening in a panel of human cancer cell lines using following methodology. The human cancer cell lines were obtained either from National Center for Cell Science, Pune or National Cancer Institute, Fredrick, Md., USA. Cells were grown in tissue culture flasks in complete growth medium (RPMI-1640 medium with 2 mM glutamine, 100 µg/ml streptomycin, pH 7.4, sterilized by filtration and supplemented with 10% sterilized fetal calf serum and 100 units/ml penicillin before use) at 37° C. in an atmosphere of 5% CO2 and 90% relative humidity in a carbon dioxide incubator. The cells at sub-confluent stage were harvested from flask by treatment with trypsin (0.05% trypsin in PBS containing 0.02% EDTA) and suspended in complete growth medium. Cells with cell viability of more than 97% by trypan blue exclusion technique were used for determination of cytotoxicity.
(§2) Test material were dissolved in DMSO (dimethyl sulphoxide) to obtain a stock solution of 2×10^−2M. The stock solution was serially diluted with complete growth medium containing 50 μg/ml of gentamycin to obtain working test solutions of required concentrations.
(§3) The suspension of human cancer cell lines of required cell density in complete growth medium was prepared and cell suspension (100 μl/well) of each cell line was added to wells of 96-well tissue culture plate. Suitable blanks and controls were also included. The plates were incubated for 24 hrs in a carbon dioxide incubator.
(§4) The working test solutions of different concentrations (100 μl/well) were added after 24 hr incubation. The plates were further incubated for 48-hrs after addition of the test materials. After incubation, the cell growth was stopped by gently layering of 50 μl of TCA (50% trichloroacetic acid) on top of the medium in all the wells. The plates were incubated at 4° C. for one hour to fix the cells attached to bottom of the wells. Liquids of all the wells were gently pipetted out and discarded. The plates were washed five times with distilled water to remove TCA, growth medium, low molecular weight metabolites, serum proteins etc. The plates were air dried.
(§5) Cell growth was measured by staining with sulforhodamine B dye (SRB). The SRB solution (100 μl, 0.4% in 1% acetic acid) was added to each well and the plates were incubated at room temperature for 30 minutes. The unbound SRB was quickly removed by washing the wells five times with 1% acetic acid solution and plates were air dried. Tris buffer (100 μl, 0.01 M, pH 10.4) was added to all the wells and plates were gently stirred for 5 minutes on a mechanical stirrer. The optical density was recorded on ELISA reader at 540 nm.
(§6) Cell growth in the presence of test material was calculated in terms of the percentage of growth inhibition. The in vitro cytotoxicity of four natural boswellic acid i.e. boswellic acid, acetyl boswellic acid, 11-keto-boswellic acids, acetyl-11-ketio-boswellic acid on various cancer cell lines has been examined and typical results are given in the succeeding table. Based on their cytotoxicity profile the analogues of formula 1 were studied for inhibition of cell proliferation by using MTT assay method. […] The induction of apoptosis in HL-60 cells was also validated by generation of DNA fragmentation.
(§7) Assay of cytotoxicity potential of test materials is a primary standard procedure for seeking lead molecules for development of anti-cancer leads. Human cancer cells after trypsinization into single cell suspension were grown in 96-well culture plate for 24 hr. Cells were treated with indicated doses of test analogues and incubated in CO2 incubator for 48 hr. Thereafter, cells were stained with sulforhodamine B dye, and the bound dye was eluted to measure the optical density indicating cell growth in Elisa Reader at 540 nm [Monks et al., 1991]. […]
A general note: The SRB assay estimates cell density from bound dye.

For test [2], the system named is Hep-2 cells. The test can be described thus: In vitro cytotoxicity, SRB assay, Hep-2. The class given is cell-based, human. The protocol:
as §1, §2, §3, §4, §5, §6, §7

The test system of test [3] is PC-3 cells. The test can be described thus: In vitro cytotoxicity, SRB assay, PC-3. The test is classed as cell-based, human. The method, then:
as §1, §2, §3, §4, §5, §6, §7

Test [4] has as its system Colo-205 colon cancer cells. The test can be described thus: In vitro cytotoxicity, SRB assay, Colo-205. The class given is cell-based, human. The method, then: as §1, §2, §3, §4, §5, §6, §7
Test [5] deals with SW-620 colon cancer cells. Nature of the test: In vitro cytotoxicity, SRB assay, SW-620. The class given is cell-based, human. The protocol:
as §1, §2, §3, §4, §5, §6, §7

Test [6] deals with Ehrlich Ascitic Carcinoma solid tumor. The test can be described thus: Ehrlich ascitic tumor (solid) growth inhibition in mice. The class given is in vivo, Swiss albino mice. The settings on record: 22 mg/kg intraperitoneally, 9 days, evaluated day 13, positive control. The method, then: FIG. 9. Tumor growth inhibition by boswellic acid analogs. Mice treated intraperitoneally with a compound (designated “c”) of formula 1, wherein R3=COCH2CH2CH3, R1=H, R4+R5=O, have shown 22% tumor growth inhibition at a dose of about 50 mg/kg of body weight, and 41% tumor growth inhibition at a dose of 100 mg/kg of body weight.
Swiss albino mice of 6-8 weeks, weighing 18-23 g of single sex were used. For the initiation of experiment, 1×10^7 cells of EAC (Ehrlich Ascitic Carcinoma) cells were transplanted intramuscularly (i.m.) in 32 mice for the development of solid tumors. The day of tumor transplantation was assigned as day 0. Next day (day-1) animals were randomly selected and divided into four groups having equal number of mice in each group of similar body wt. Groups I and II were treated with compound of formula 1 where R3=COCH2CH2CH3, R1=H, R4+R5=O at the dose of 50 mg/kg b, wt and 100 mg/kg b. wt. intraperitoneally, respectively. Group III received 0.2 ml of 0.85% normal saline and served as normal control while group IV serving as positive control was treated with 5-FU (22 mg/kg b. wt.) intraperitoneally. The total duration of treatment was of 9 days. The evaluation of effect of treatment on tumor was done on 13th day. Ehrlich ascites cells (1×10^7) were injected intramuscularly in the right thigh muscles and on the following day animals started receiving treatment intraperitoneally in 0.5% Tween-20 daily at the indicated doses for 9 days. The growth of tumor and the efficacy of compound of formula 1, where R3=COCH2CH2CH3, R1=H, R4+R5=O in inhibiting tumor growth were evaluated on day 13 in terms of the weight of the tumor in treated and control groups count. The determination of solid tumor growth inhibition against EAT was calculated as percent tumor growth regression according to the following: […]

The test system of test [7] is HL-60 cells. The test can be described thus: Apoptosis induction, annexin V-FITC/PI flow cytometry. The class given is cell-based, human. The settings on record: HL-60, 15 μM, 6 hr. The method, then: FIG. 2. Comparative efficacy of apoptosis induction: Measurement by flow cytometry. The effects of boswellic acid on the relative efficiency of induction of apoptosis and necrosis in HL-60 cells were analyzed by flow cytometry. Cells were incubated with each analog for 6 hrs and stained with annexin V-FITC labeled. The dot plots are representative of one of the two separate experiments. Values in the lower right quadrant represent the apoptotic population in the UR as post-apoptotic and in the UL as necrotic. Where a=compound of formula 1, R3=COCH2CH2CH3, […], R4=[…], b=compound of formula 1, R3=COCH2CH3R1=H, R4=[…], c=compound of formula 1, R3=COCH2CH2CH3, […], R4+R5=O, d=compound of formula 1, […], R3=COCH2CH3, R4=[…], e=compound of formula 1, R3=COCH2CH2CH3, […], R4=[…], f=β-boswellic acid. Compounds of formula 1 where […], R3=COCH2CH3R3=[…]; R3=COCH2CH2CH3, […], R4=[…] and natural β-boswellic acid produced low level of apoptotic cell population (approx. 10%) compared to compound of formula 1 where R3=COCH2CH2CH3, […], R4=[…] (17%), […], R3=COCH2CH3, R4=[…] (30%) and where R3=COCH2CH2CH3, […], R4+R5=O (23%), although the combined apoptotic and post-apoptotic population was about 32% with the last three analogs. Confirmation that boswellic acid analogs are potent inducers of apoptosis may also be obtained from DNA fragmentation assay. During the early events of apoptosis, phospholipid phosphatidyl serine of plasma membrane is externalized, which has very high affinity for annexinV antibody. Effect of a single concentration (15 μM) of each boswellic acid analogs on the relative efficiency of induction of apoptosis and necrosis in HL-60 cells was analyzed by flow cytometry. Cells were incubated with each analog for 6 hr and stained with Annexin V-FITC/PI. Camptothecin at 4 μM was used as positive control. There after, cells were washed and stained with FITC conjugated annexinV antibody and propidium iodide. The cells (10,000) were analysed by flow cytometery (BD, LSR) using ProQuest software.
A general note: Flow cytometry measures light scatter and fluorescence of single cells or particles in a stream.

Where [8] appears, read: Conc. 5 × 10^5 (r27-r29: 5 × 10^−5), 48 hr, Table 1.
The mark [9] stands for this setting: Conc. 5 × 10^−5, 48 hr, natural boswellic acids.

For the compound `O=c1[nH]cc(F)c(=O)[nH]1` [Compound 5-FU, 5-FU, reference compound], the “Growth inhibition % HT-29 Colon” value in test [1] (Conc. 1 × 10^4, Table 2) worked out at 21%; in test [1] (Conc. 1 × 10^5, Table 2), 40%. The “Growth inhibition % Hep-2” value in test [2] (Conc. 1 × 10^4, Table 2) is recorded as 5%; in test [2] (Conc. 1 × 10^5, Table 2), 14%. The “Growth inhibition % PC-3” value in test [3] (Conc. 1 × 10^4, Table 2) was found to be 52%; in test [3] (Conc. 1 × 10^5, Table 2), 37%. In addition, the “Growth inhibition % Colo-205 Colon” value in test [4] (Conc. 1 × 10^4, Table 2) turned out to be 39%; in test [4] (Conc. 1 × 10^5, Table 2) it was 43%. The “Growth inhibition % SW-620 Colon” value amounted to 7% in test [5] (Conc. 1 × 10^4, Table 2) and 0% in test [5] (Conc. 1 × 10^5, Table 2). For the same compound, the tumor growth inhibition in test [6] was found to be 56%.
On to `CCC(=O)OC1CCC2(C)C(CCC3(C)C2CC=C2C4C(C)C(C)CCC4(C)CCC23C)C1(C)C(=O)O` (stereo not drawn) [d], for which the “combined apoptotic and post-apoptotic population” value in test [7] was “about 32%”. The apoptotic cell population in test [7] (listed as R1=H, R3=COCH2CH3, R4=R5=H) is listed as 30%.
On to `CCCCCC(=O)OC1CCC2(C)C(CCC3(C)C2C(=O)C=C2C4C(C)C(C)CCC4(C)CCC23C)C1(C)C(=O)O` (stereo not drawn), for which the “Growth inhibition % HT-29 Colon” value in test [1] (setting [8]) is 96%. Also, the “Growth inhibition % Hep-2” value in test [2] (setting [8]) turned out to be 100%. The “Growth inhibition % PC-3” value in test [3] (setting [8]) is reported as 73%. Also, the “Growth inhibition % Colo-205 Colon” value in test [4] (setting [8]) worked out at 95%. In test [5] (setting [8]), the “Growth inhibition % SW-620 Colon” value came to 100%.
As to `C[C@H]1[C@H](C)CC[C@]2(C)CC[C@]3(C)C(=CC[C@@H]4[C@@]5(C)CC[C@@H](O)[C@](C)(C(=O)O)[C@@H]5CC[C@]43C)[C@H]12` [β-boswellic acid, reference compound], the apoptotic cell population result in test [7] was “approx. 10%”.
Consider “Acetyl Boswellic acid [reference compound]”, for which, in test [1] (setting [9]), the “Growth inhibition % HT-29 Colon” value stood at 96%. Also, the “Growth inhibition % Hep-2” value in test [2] (setting [9]) was determined as 88%. For the same compound, the “Growth inhibition % PC-3” value in test [3] (setting [9]) stood at 45%. The “Growth inhibition % Colo-205 Colon” value in test [4] (setting [9]) came out at 95%. Besides, the “Growth inhibition % SW-620 Colon” value in test [5] (setting [9]) is given as 97%.
As for `CCC(=O)OC1CCC2(C)C(CCC3(C)C2CC=C2C4C(C)C(C)CCC4(C)CCC23C)C1(C)C(=O)O` (stereo not drawn) [b], the apoptotic cell population result in test [7] (listed as R1=H, R3=COCH2CH3R3=R4=H) is listed as “approx. 10%”.
For `CCC(=O)OC1CCC2(C)C(CCC3(C)C2C(=O)C=C2C4C(C)C(C)CCC4(C)CCC23C)C1(C)C(=O)O` (stereo not drawn) [1, R3O = COCH2CH3, R1 = H, R4 + R5 = O], the “Growth inhibition % HT-29 Colon” value in test [1] (setting [8]) stood at 92%. Moreover, the “Growth inhibition % Hep-2” value in test [2] (setting [8]) came to 72%. Also, the “Growth inhibition % PC-3” value in test [3] (setting [8]) worked out at 61%. The “Growth inhibition % Colo-205 Colon” value in test [4] (setting [8]) turned out to be 92%. Moreover, the “Growth inhibition % SW-620 Colon” value in test [5] (setting [8]) is recorded as 90%.
